Experimental data: PubChem BioAssay (NCI)
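Assay format: 96-well plates, 48-hour exposure. TGI denotes the concentration required for complete inhibition of growth.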

Assays:
Assay in all cases: NCI tumour cell line growth inhibition, 48 h
SN12C renal = tested on: SN12C renal
NCI-H23 lung = tested on: NCI-H23 lung
SF-539 CNS = tested on: SF-539 CNS
SNB-75 CNS = tested on: SNB-75 CNS
KM12 colon = tested on: KM12 colon
HOP-92 NSCLC = tested on: HOP-92 NSCLC
SW-620 colon = tested on: SW-620 colon
SNB-78 CNS = tested on: SNB-78 CNS
SN12K1 renal = tested on: SN12K1 renal
MALME-3M melanoma = tested on: MALME-3M melanoma
DLD-1 colon = tested on: DLD-1 colon
HOP-62 NSCLC = tested on: HOP-62 NSCLC
NCI-H460 lung = tested on: NCI-H460 lung
MCF7 breast = tested on: MCF7 breast
UACC-62 melanoma = tested on: UACC-62 melanoma
EKVX NSCLC = tested on: EKVX NSCLC
NCI-H226 lung = tested on: NCI-H226 lung
SNB-19 CNS = tested on: SNB-19 CNS
K-562 leukemia = tested on: K-562 leukemia
OVCAR-3 ovarian = tested on: OVCAR-3 ovarian
OVCAR-4 ovarian = tested on: OVCAR-4 ovarian
DMS 114 small cell lung = tested on: DMS 114 small cell lung
HL-60(TB) leukemia = tested on: HL-60(TB) leukemia
HT29 colon = tested on: HT29 colon
A549 NSCLC = tested on: A549 NSCLC
CCRF-CEM leukemia = tested on: CCRF-CEM leukemia
M19-MEL melanoma = tested on: M19-MEL melanoma
MOLT-4 leukemia = tested on: MOLT-4 leukemia
NCI/ADR-RES ovarian = tested on: NCI/ADR-RES ovarian
HOP-18 NSCLC = tested on: HOP-18 NSCLC
NCI-H522 lung = tested on: NCI-H522 lung
RPMI-8226 leukemia = tested on: RPMI-8226 leukemia
COLO 205 colon = tested on: COLO 205 colon
CAKI-1 renal = tested on: CAKI-1 renal
HCT-15 colon = tested on: HCT-15 colon
UO-31 renal = tested on: UO-31 renal
IGROV1 ovarian = tested on: IGROV1 ovarian
OVCAR-5 ovarian = tested on: OVCAR-5 ovarian
SK-MEL-2 melanoma = tested on: SK-MEL-2 melanoma
RXF 393 renal = tested on: RXF 393 renal
SF-268 CNS = tested on: SF-268 CNS
U251 CNS = tested on: U251 CNS
HCC-2998 colon = tested on: HCC-2998 colon
KM20L2 colon = tested on: KM20L2 colon
SK-MEL-28 melanoma = tested on: SK-MEL-28 melanoma
A498 renal = tested on: A498 renal
SK-MEL-5 melanoma = tested on: SK-MEL-5 melanoma
OVCAR-8 ovarian = tested on: OVCAR-8 ovarian
SK-OV-3 ovarian = tested on: SK-OV-3 ovarian
UACC-257 melanoma = tested on: UACC-257 melanoma
DMS 273 small cell lung = tested on: DMS 273 small cell lung
LOX IMVI melanoma = tested on: LOX IMVI melanoma
SF-295 CNS = tested on: SF-295 CNS
HCT-116 colon = tested on: HCT-116 colon
XF 498 CNS = tested on: XF 498 CNS
MDA-N = tested on: MDA-N
MDA-MB-435 = tested on: MDA-MB-435
LXFL 529 NSCLC = tested on: LXFL 529 NSCLC
M14 melanoma = tested on: M14 melanoma
P388/ADR leukemia = tested on: P388/ADR leukemia
ACHN renal = tested on: ACHN renal
BT-549 breast = tested on: BT-549 breast
DU-145 prostate = tested on: DU-145 prostate
786-0 renal = tested on: 786-0 renal
P388 leukemia = tested on: P388 leukemia
PC-3 prostate = tested on: PC-3 prostate
SR leukemia = tested on: SR leukemia
T-47D breast = tested on: T-47D breast
MDA-MB-231 breast = tested on: MDA-MB-231 breast
HS 578T breast = tested on: HS 578T breast
TK-10 renal = tested on: TK-10 renal
RXF-631 renal = tested on: RXF-631 renal

Q: What does the source list for `CN1CCc2[nH]c3ccccc3c2C1`?
A: TGI (SN12C renal): > 100 µM; TGI (NCI-H23 lung): > 100 µM; TGI (SF-539 CNS): > 100 µM; TGI (SNB-75 CNS): > 100 µM; TGI (KM12 colon): > 100 µM; TGI (HOP-92 NSCLC): > 100 µM; TGI (SW-620 colon): > 100 µM; TGI (SNB-78 CNS): > 100 µM; TGI (SN12K1 renal): > 100 µM; TGI (MALME-3M melanoma): > 100 µM; TGI (DLD-1 colon): > 100 µM; TGI (HOP-62 NSCLC): > 100 µM; TGI (NCI-H460 lung): > 100 µM; TGI (MCF7 breast): > 100 µM; TGI (UACC-62 melanoma): > 100 µM; TGI (EKVX NSCLC): > 100 µM; TGI (NCI-H226 lung): > 100 µM; TGI (SNB-19 CNS): > 100 µM; TGI (K-562 leukemia): > 100 µM; TGI (OVCAR-3 ovarian): > 100 µM; TGI (OVCAR-4 ovarian): > 100 µM; TGI (DMS 114 small cell lung): > 100 µM; TGI (HL-60(TB) leukemia): > 100 µM; TGI (HT29 colon): > 100 µM; TGI (A549 NSCLC): > 100 µM; TGI (CCRF-CEM leukemia): > 100 µM; TGI (M19-MEL melanoma): > 100 µM; TGI (MOLT-4 leukemia): > 100 µM; TGI (NCI/ADR-RES ovarian): > 100 µM; TGI (HOP-18 NSCLC): > 100 µM; TGI (NCI-H522 lung): > 100 µM; TGI (RPMI-8226 leukemia): > 100 µM; TGI (COLO 205 colon): > 100 µM; TGI (CAKI-1 renal): > 100 µM; TGI (HCT-15 colon): > 100 µM; TGI (UO-31 renal): > 100 µM; TGI (IGROV1 ovarian): > 100 µM; TGI (OVCAR-5 ovarian): > 100 µM; TGI (SK-MEL-2 melanoma): > 100 µM; TGI (RXF 393 renal): > 100 µM; TGI (SF-268 CNS): > 100 µM; TGI (U251 CNS): > 100 µM; TGI (HCC-2998 colon): > 100 µM; TGI (KM20L2 colon): > 100 µM; TGI (SK-MEL-28 melanoma): > 100 µM; TGI (A498 renal): > 100 µM; TGI (SK-MEL-5 melanoma): > 100 µM; TGI (OVCAR-8 ovarian): > 100 µM; TGI (SK-OV-3 ovarian): > 100 µM; TGI (UACC-257 melanoma): > 100 µM; TGI (DMS 273 small cell lung): > 100 µM; TGI (LOX IMVI melanoma): > 100 µM; TGI (SF-295 CNS): > 100 µM; TGI (HCT-116 colon): > 100 µM; TGI (XF 498 CNS): > 100 µM

Q: For `C[C@]12C=CC(=O)C=C1CC[C@@H]1[C@@H]2CC[C@]2(C)OC(=O)CC[C@@H]12`, which TGI (SN12C renal) is on record?
A: Its TGI is over 500 µM.

Q: What about the TGI (NCI-H23 lung) of the same molecule?
A: The TGI was 499 µM.

Q: What about the TGI (SF-539 CNS) of the same molecule?
A: The TGI was over 476 µM.

Q: And the TGI (SNB-75 CNS)?
A: The TGI was over 487 µM.

Q: What about the TGI (KM12 colon) of the same molecule?
A: The TGI was over 500 µM.

Q: And the TGI (HOP-92 NSCLC)?
A: Its TGI is 500 µM.

Q: What about the TGI (MDA-N) of the same molecule?
A: The TGI was over 500 µM.

Q: And the TGI (MDA-MB-435)?
A: Its TGI is over 500 µM.

Q: And the TGI (SW-620 colon)?
A: The TGI was over 496 µM.

Q: What about the TGI (SNB-78 CNS) of the same molecule?
A: Its TGI is over 500 µM.

Q: And the TGI (SN12K1 renal)?
A: The TGI was 498 µM.

Q: What about the TGI (MALME-3M melanoma) of the same molecule?
A: The TGI was over 500 µM.

Q: And the TGI (LXFL 529 NSCLC)?
A: The TGI was over 500 µM.

Q: What about the TGI (M14 melanoma) of the same molecule?
A: The TGI was over 500 µM.

Q: And the TGI (DLD-1 colon)?
A: The TGI was over 500 µM.

Q: What about the TGI (HOP-62 NSCLC) of the same molecule?
A: Its TGI is over 471 µM.

Q: And the TGI (P388/ADR leukemia)?
A: The TGI was 449 µM.

Q: What about the TGI (NCI-H460 lung) of the same molecule?
A: The TGI was over 500 µM.

Q: What about the TGI (MCF7 breast) of the same molecule?
A: The TGI was over 500 µM.

Q: What about the TGI (UACC-62 melanoma) of the same molecule?
A: The TGI was 500 µM.

Q: And the TGI (EKVX NSCLC)?
A: Its TGI is over 500 µM.

Q: And the TGI (NCI-H226 lung)?
A: Its TGI is over 493 µM.

Q: And the TGI (ACHN renal)?
A: Its TGI is over 500 µM.

Q: And the TGI (SNB-19 CNS)?
A: The TGI was over 500 µM.

Q: What about the TGI (BT-549 breast) of the same molecule?
A: Its TGI is over 500 µM.

Q: And the TGI (DU-145 prostate)?
A: The TGI was over 500 µM.

Q: What about the TGI (786-0 renal) of the same molecule?
A: Its TGI is over 500 µM.

Q: And the TGI (K-562 leukemia)?
A: The TGI was over 500 µM.

Q: And the TGI (P388 leukemia)?
A: The TGI was over 486 µM.

Q: And the TGI (OVCAR-3 ovarian)?
A: The TGI was over 500 µM.

Q: What about the TGI (OVCAR-4 ovarian) of the same molecule?
A: The TGI was over 500 µM.

Q: And the TGI (PC-3 prostate)?
A: The TGI was over 500 µM.

Q: What about the TGI (DMS 114 small cell lung) of the same molecule?
A: Its TGI is over 500 µM.

Q: What about the TGI (SR leukemia) of the same molecule?
A: Its TGI is over 489 µM.

Q: And the TGI (HL-60(TB) leukemia)?
A: The TGI was 476 µM.

Q: What about the TGI (HT29 colon) of the same molecule?
A: Its TGI is over 500 µM.

Q: What about the TGI (A549 NSCLC) of the same molecule?
A: Its TGI is 478 µM.

Q: What about the TGI (CCRF-CEM leukemia) of the same molecule?
A: Its TGI is over 500 µM.

Q: What about the TGI (MOLT-4 leukemia) of the same molecule?
A: Its TGI is over 500 µM.

Q: And the TGI (NCI/ADR-RES ovarian)?
A: The TGI was over 500 µM.

Q: What about the TGI (HOP-18 NSCLC) of the same molecule?
A: Its TGI is 232 µM.

Q: And the TGI (NCI-H522 lung)?
A: The TGI was 457 µM.

Q: What about the TGI (RPMI-8226 leukemia) of the same molecule?
A: Its TGI is over 500 µM.

Q: What about the TGI (COLO 205 colon) of the same molecule?
A: Its TGI is over 500 µM.

Q: What about the TGI (CAKI-1 renal) of the same molecule?
A: Its TGI is over 404 µM.

Q: And the TGI (HCT-15 colon)?
A: The TGI was over 500 µM.

Q: And the TGI (UO-31 renal)?
A: The TGI was over 500 µM.

Q: And the TGI (IGROV1 ovarian)?
A: The TGI was over 475 µM.

Q: What about the TGI (OVCAR-5 ovarian) of the same molecule?
A: The TGI was over 500 µM.

Q: What about the TGI (T-47D breast) of the same molecule?
A: Its TGI is over 500 µM.

Q: What about the TGI (SK-MEL-2 melanoma) of the same molecule?
A: Its TGI is over 488 µM.

Q: And the TGI (RXF 393 renal)?
A: The TGI was over 485 µM.

Q: And the TGI (SF-268 CNS)?
A: Its TGI is over 500 µM.

Q: What about the TGI (U251 CNS) of the same molecule?
A: Its TGI is over 500 µM.

Q: What about the TGI (MDA-MB-231 breast) of the same molecule?
A: Its TGI is over 500 µM.

Q: What about the TGI (HS 578T breast) of the same molecule?
A: Its TGI is over 500 µM.

Q: What about the TGI (HCC-2998 colon) of the same molecule?
A: The TGI was over 409 µM.

Q: What about the TGI (KM20L2 colon) of the same molecule?
A: The TGI was over 470 µM.

Q: And the TGI (SK-MEL-28 melanoma)?
A: Its TGI is over 500 µM.

Q: And the TGI (A498 renal)?
A: The TGI was 496 µM.

Q: And the TGI (TK-10 renal)?
A: Its TGI is over 500 µM.

Q: And the TGI (SK-MEL-5 melanoma)?
A: The TGI was over 477 µM.

Q: What about the TGI (RXF-631 renal) of the same molecule?
A: The TGI was over 500 µM.

Q: And the TGI (OVCAR-8 ovarian)?
A: The TGI was 498 µM.

Q: What about the TGI (SK-OV-3 ovarian) of the same molecule?
A: The TGI was over 500 µM.

Q: And the TGI (UACC-257 melanoma)?
A: The TGI was over 500 µM.

Q: What about the TGI (DMS 273 small cell lung) of the same molecule?
A: The TGI was over 500 µM.

Q: What about the TGI (LOX IMVI melanoma) of the same molecule?
A: The TGI was over 500 µM.

Q: And the TGI (SF-295 CNS)?
A: The TGI was over 500 µM.

Q: And the TGI (HCT-116 colon)?
A: The TGI was over 482 µM.

Q: What about the TGI (XF 498 CNS) of the same molecule?
A: The TGI was 373 µM.
